Patent US20190352268A1, “CANNABINOID RECEPTOR MEDIATING COMPOUNDS” (The USA, as represented by the Secretary, Department of …, priority 2015, published 2019)
Where two headings read alike, the source gives them in different places. Each block holds one compound with its values, some of them ahead of it.

Assays:
[1] = tested on: CCl4-induced liver fibrosis; assay: CCl4-induced liver fibrosis model in mice; format: in vivo, mouse; conditions: for CCl4-induced increase in immunoreactive iNOS: liver
Description: CCl4-induced liver fibrosis was generated by intraperitoneal injection of CCL4 (1 ml/kg, diluted 1:10 corn oil), twice weekly for 8 weeks. […] Data represent mean±SEM from 7-8 mice per group.*P<0.05 relative to control. ^#indicates significant treatment effect (P<0.05) relative to CCl4-treated vehicle group.
Fibrosis results from excessive extracellular matrix deposition by myofibroblasts accompanying chronic inflammation and wound healing, and is a key pathogenic process in many organs, including kidneys, lung, and liver.

[2] = Tissue levels (brain and plasma) after administration to mice; conditions: 1 hour after administration of 10 mg/kg to mice
[3] = tested on: ZDF rats; assay: Zucker diabetic fatty (ZDF) rat model of type 2 diabetes; format: in vivo; conditions: 10 mg/kg/day oral gavage, 7 days
From the text: The Zucker diabetic fatty (ZDF) rat is a commonly used animal model of type 2 diabetes with progressive β-cell loss resulting in extreme hyperglycemia. […] (Jourdan et al, Nature Med 2013, 19-(9):1132-1140).

[4] = tested on: DIO mice; assay: Mice with diet-induced obesity (DIO), 14 days oral treatment; format: in vivo, mouse
Description: Data represent mean±SEM from 5-6 mice per group.*(P<0.05), indicate significant difference from […] diet control. ^# indicates significant treatment effect (P<0.05) relative to vehicle-treated HFD group.
Data represent mean±SEM from 5-6 mice per group. *(P<0.05), indicate significant difference from (STD) diet control. ^# indicates significant treatment effect (P<0.05) relative to vehicle-treated HFD group. […] Glucose tolerance and insulin sensitivity were determined on the last 2 days of treatment, using i.p. glucose tolerance and insulin sensitivity tests.

[5] = target: T1, CB1 (Mus musculus, UniProt P47746)
T1 sequence (P47746 whole entry): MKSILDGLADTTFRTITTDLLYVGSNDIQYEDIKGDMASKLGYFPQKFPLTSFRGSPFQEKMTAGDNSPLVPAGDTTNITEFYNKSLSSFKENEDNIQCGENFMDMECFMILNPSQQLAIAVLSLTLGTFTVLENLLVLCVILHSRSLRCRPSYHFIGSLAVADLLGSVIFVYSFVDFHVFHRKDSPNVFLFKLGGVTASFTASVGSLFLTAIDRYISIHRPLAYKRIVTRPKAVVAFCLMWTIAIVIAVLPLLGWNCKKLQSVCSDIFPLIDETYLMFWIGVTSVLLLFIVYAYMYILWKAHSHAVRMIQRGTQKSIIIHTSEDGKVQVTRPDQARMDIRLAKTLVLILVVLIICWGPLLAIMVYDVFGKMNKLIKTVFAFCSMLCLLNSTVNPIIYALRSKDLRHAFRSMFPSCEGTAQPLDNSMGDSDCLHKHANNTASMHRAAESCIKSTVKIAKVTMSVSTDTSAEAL

[6] = In vivo metabolism in mouse, plasma LC-MS/MS; conditions: 1 h after oral administration at 10 mg/kg in mice
[7] = tested on: recombinant human AMPK; assay: Recombinant AMPK activity assay (Cyclex kit); format: biochemical
From the text: Guanides and biguanides, such as metformin, are effective as antidiabetic agents linked to their AMPK activating properties (Hardie et al., Chem Biol. 2012, […]; 1222-1236). Guanidine-containing analogs in certain embodiments were screened for activation of recombinant human AMPK, using an assay kit (Cyclex, Nagona, Japan), as illustrated in FIG. 8.
Activators of AMP-activated protein kinase (AMPK), such as guanidines of biguanides such as metformin are useful for the treatment of diabetes owing to their AMPK activating property (Hardie, et al., Chem & Biol 2012, 19(10); 1222-1236). Guanidine analogues of certain embodiments were screened for AMPK activation by using a recombinant AMPK activity assay.

[8] = tested on: liver fibrosis; conditions: Teixeira-Clerc, Nature Med 2006; cited from earlier work
[9] = target: T1, CB1; assay: CB1 radioligand displacement assay in mouse brain membranes; format: binding; design: radioligand displacement assay in mouse brain membranes; from tissue; host or cells: mouse brain membranes; conditions: Table 2; read-out: Ki CB1
[10] = 10 mg/kg/day orally for 4 weeks
[11] = DIO mice, 10 mg/kg/day, 14 days

Ki [9]: 60 nM
SMILES: NC(=NC(=NS(=O)(=O)c1ccc(Cl)cc1)N1CC(c2ccccc2)C(c2ccc(Cl)cc2)=N1)c1cccs1 (stereo not shown) [Compound 16]

Ki [9]: 419 nM
SMILES: N/C(=N\C(=N\S(=O)(=O)c1ccc(Cl)cc1)N1CC(c2ccccc2)C(c2ccc(Cl)cc2)=N1)NC1CCCCC1 (stereo not shown) [Compound 57]

Ki [9]: 1.3 nM
SMILES: CC(=O)N/C(N)=N/C(=N/S(=O)(=O)c1ccc(C(C)(C)C)cc1)N1CC(c2ccccc2)C(c2ccc(Cl)cc2)=N1 (stereo not shown) [Compound 91]

Ki [9]: 443 nM
SMILES: COC(CN(C)C(N)=NC(=NS(=O)(=O)c1ccc(Cl)cc1)N1CC(c2ccccc2)C(c2ccc(Cl)cc2)=N1)OC (stereo not shown) [Compound 68]

Ki [9]: 287 nM
SMILES: NC(=NC(=NS(=O)(=O)c1ccc(Cl)cc1)N1CC(c2ccccc2)C(c2ccc(Cl)cc2)=N1)SCCc1ccccc1 (stereo not shown) [Compound 25]

More lines, now with the values behind:

SMILES: CC(=N)N/C(=N\S(=O)(=O)c1ccc(Cl)cc1)N1C[C@H](c2ccccc2)C(c2ccc(Cl)cc2)=N1 [Compound 2E1]
liver fibrosis / collagen deposition by Sirius Red and Masson's trichrome staining [1, 10]: more effective than rimonabant | CCl4-induced increase in immunoreactive iNOS [1, 10]: dramatically attenuated | anti-fibrotic efficacy in liver fibrosis (overall) ([1]; versus rimonabant): higher anti-fibrotic efficacy than rimonabant | plasma levels, oral versus i.p. administration [2]: comparable after oral or i.p. administration

SMILES: C/C(N)=N\C(=N/S(=O)(=O)c1ccc(Cl)cc1)N1CC(c2ccccc2)C(c2ccc(Cl)cc2)=N1 (racemic) [Compound 2, rac-N-(1-aminoethylidene)-3-(4-chlorophenyl)-N-((4-chlorophenyl)sulfonyl)-4-phenyl-4,5-dihydro-1H-pyrazole-1-carboximidamide]
plasma c-peptide [3]: prevented | plasma insulin [3]: prevented | blood glucose ([3]; 10 mg/kg/day): prevented the progressive increase | HFD-induced glucose intolerance [4, 11]: abrogated | body weight [4, 11]: reduced | food intake [4, 11]: reduced | hepatic TG [4, 11]: reduced | hyperinsulinemia [4, 11]: abrogated | hyperleptinemia [4, 11]: reduced | insulin resistance [4, 11]: abrogated | insulin resistance (insulin sensitivity test) ([4]; DIO mice, last 2 days of treatment): nearly completely normalized | glucose intolerance (i.p. glucose tolerance test) ([4]; DIO mice, last 2 days of treatment, i.p. glucose load 1.5 g/kg): nearly completely normalized | In vivo Comments ([4]; mouse, in vivo): -anti- diabetic -anti- obesity | Functional GTPγS binding CB1 Emax [5]: -20 % basal | liver fibrosis / collagen deposition by Sirius Red and Masson's trichrome staining [1, 10]: more effective than rimonabant | α-SMA, Procollagen-1 and Fibronectin-1 mRNA [1, 10]: more effective than rimonabant | CCl4-induced increase in immunoreactive iNOS [1, 10]: attenuated | in vivo metabolism, metabolite generation in plasma [6]: underwent in vivo metabolism to liberate the amidine moiety and a metabolite

SMILES: Cc1c(C(=O)NN2CCCCC2)nn(-c2ccc(Cl)cc2Cl)c1-c1ccc(Cl)cc1 [rimonabant]
effect on AMPK activity [7]: no effect | effect on AMPK activity ([7]; 1 μM): no effect | anti-fibrotic effect [8]: anti-fibrotic effect

SMILES: CC(C)(C)N/C(N)=N/C(=N/S(=O)(=O)c1ccc(Cl)cc1)N1CC(c2ccccc2)C(c2ccc(Cl)cc2)=N1 (stereo not shown) [Compound 46]
Ki [9]: 49 nM

SMILES: NC(=NC(=NS(=O)(=O)c1ccc(I)cc1)N1CC(c2ccccc2)C(c2ccc(Cl)cc2)=N1)c1ccc(F)cc1F (stereo not shown) [Compound 88]
Ki [9]: 4.8 nM

SMILES: CN(CCC#N)/C(N)=N/C(=N/S(=O)(=O)c1ccc(Cl)cc1)N1CC(c2ccccc2)C(c2ccc(Cl)cc2)=N1 (stereo not shown) [Compound 61]
Ki [9]: 203 nM

SMILES: CC(N)=NC(=NS(=O)(=O)c1ccc(Br)cc1)N1CC(c2ccccc2)C(c2ccc(Cl)cc2)=N1 (stereo not shown) [Compound 28]
Ki [9]: 18 nM

SMILES: CC(N)=NC(=NS(=O)(=O)c1ccc(I)cc1)N1CC(c2ccccc2)C(c2ccc(Cl)cc2)=N1 (stereo not shown) [Compound 29]
Ki [9]: 10 nM

SMILES: NC(=NC(=NS(=O)(=O)c1ccc(Cl)cc1)N1CC(c2ccccc2)C(c2ccc(Cl)cc2)=N1)c1ccccc1F (stereo not shown) [Compound 15]
Ki [9]: 19 nM

SMILES: CCCN(CCC)/C(N)=N/C(=N/S(=O)(=O)c1ccc(Cl)cc1)N1CC(c2ccccc2)C(c2ccc(Cl)cc2)=N1 (stereo not shown) [Compound 37]
Ki [9]: 138 nM

SMILES: NC(=NC(=NS(=O)(=O)c1ccc(Cl)cc1)N1CC(c2ccccc2)C(c2ccc(Cl)cc2)=N1)c1ccc(F)cc1F (stereo not shown) [Compound 19]
Ki [9]: 7.7 nM

SMILES: Cc1cc(C)n(C(N)=NC(=NS(=O)(=O)c2ccc(C(F)(F)F)cc2)N2CC(c3ccccc3)C(c3ccc(Cl)cc3)=N2)n1 (stereo not shown) [Compound 85]
Ki [9]: 1.5 nM

SMILES: CN(Cc1ccccc1)/C(N)=N/C(=N/S(=O)(=O)c1ccc(Cl)cc1)N1CC(c2ccccc2)C(c2ccc(Cl)cc2)=N1 (stereo not shown) [Compound 49]
Ki [9]: 343 nM
